Results published in publication PMC4104781 (Journal of controlled release : official journal of the …, 2013).

What was measured:
Spectrometric = assay type: physicochemical; settings: aqueous buffer solutions at various pH, pH 3.5
[1] = TPT lactone-carboxylate interconversion; assay type: physicochemical; settings: 37 °C, aqueous buffers pH 5.92-7.67, fit of kinetic interconversion model
[2] = assay type: physicochemical
[3] = DSPC/DSPE-PEG2K bilayer, model fit of release profiles
[4] = DSPC/DSPE-PEG2K liposomes, 38.7 ± 0.1 °C, model fit over pH 3.35-7.67

- pKa (Spectrometric): 6.56 ± 0.12
- carboxylic acid/lactone equilibrium constant (K0) [1]: 1.98 ± 0.07 × 10^−3
- binding to the phospholipid bilayer, anionic carboxylate form (Ca) [2, 3]: negligible binding
- binding to the phospholipid bilayer, zwitterionic lactone (Ln) [2, 3]: negligible binding
- membrane partition coefficient, lactone species with unionized phenol (Lp) [2, 3]: 61.7 ± 5.9
- bilayer transport of the anionic carboxylate form (Ca) [2, 4]: impermeable
SMILES: CC[C@@]1(O)C(=O)OCc2c1cc1n(c2=O)Cc2cc3c(CN(C)C)c(O)ccc3nc2-1 [TPT, topotecan]
- base-catalyzed ring-closing rate constant (kc,OH) [1]: 7.4 ± 0.3 × 10^8 mol^−1hr^−1
- transport rate constant, cationic lactone species (Lp) [2, 4]: 0.51 ± 0.07 h⁻¹
- transport rate constant, ring-opened carboxylate zwitterion (Cn) [2, 4]: 5.7 ± 0.5 h⁻¹
- transport rate constant, zwitterionic lactone (Ln) [2, 4]: 33.9 ± 4.6 h⁻¹
